Experimental data as given in patent publication US4581359A, “Pharmacological treatments with N-7-substituted derivatives of theophylline” (priority 1984, dated 1986).
Where “and” joins values, the source holds several entries; their conditions need not be identical. Equal values may be shown once. Read-outs that look alike come from different tables or passages of the source.

Columns and labels:
[1] = Concomitant dyphylline and aminophylline in two horses: plasma concentration, blood pressure, pulse (Example 3); details: for Cmax: peak plasma concentration of theophylline
Method: Two horses were administered dyphylline and aminophylline concomitantly.
The second horse was given a bolus injection of dyphylline (20 mg/kg as 100 mg/ml solution in D5W) over 15 seconds into the jugular vein. Aminophylline infusion (10 mg/kg dissolved in one liter of D5W) was started immediately and administered over 20 minutes.

[2] = Fatal toxicity of theophylline, repeated aminophylline infusion in rabbits (Example 1); assay type: in vivo, female New Zealand White rabbits; details: for Vd: rabbit, blood, iv
Method: Aminophylline (40 mg/kg) was infused into four rabbits over fifteen minutes once every two hours until the rabbits died. After the first infusion, blood concentrations of theophylline averaged about 100 mcg/ml in all four rabbits. […] In the second period total xanthine blood concentrations of theophylline averaged about 250 mcg/ml. Three rabbits died in this period with theophylline blood concentrations of about 250 mcg/ml. One rabbit died shortly after the third infusion which gave a blood theophylline concentration of about 400 mcg/ml. […] The last blood sample for each rabbit was collected immediately after the rabbit died.

[3] = Theophylline (aminophylline) intravenous infusion in rabbits: blood concentration, pharmacokinetics, toxicity (Example 1); assay type: in vivo, female New Zealand White rabbits; details: for visible toxicity: aminophylline 40 mg/kg over 15 minutes, three rabbits
Method: Analytical grade chemicals were used without further purification. All water was distilled prior to use. 250 mg/10 ml aminophylline injection (Searle Laboratories, Chicago, Ill.) was diluted with an appropriate amount of distilled water for injection. Dyphylline powder (Lemmon Company, Sellersville, Pa.) was dissolved in distilled water for injection.
A high-pressure liquid chromatographic (HPLC) system consisted of a delivery pump (M-6000A, Waters Associates, Milford, Mass.), sample injection apparatus (Model U6K, Waters Associates, Milford, Mass.), 30-cm reverse phase column (μBondapak C18, Waters Associates, Milford, Mass.), UV detector (Model 440, Waters Associates, Milford, Mass.) with wavelength of 280 nm and a dual pen recorder (Soltec Co., Encino, Calif.) which were used at ambient temperature.
The internal standard used was β-hydroxypropyl theophylline (Aldrich Chemical Co., Inc., Milwaukee, Wis.) in acetonitrile which was prepared in a 500 ml volumetric flask as a stock solution, and kept tightly sealed except during use throughout the experiment. Internal standard solution (0.4 ml) was added to an equal volume (0.4 ml) of sample to precipitate protein. After centrifuging for 10 minutes, the supernatant was injected into the HPLC. The HPLC operating conditions included a mobile phase composed of acetonitrile (6 percent V/V) in distilled water and a flow rate of 2.0 ml/min.
A typical semilogrithmic plot of a blood theophylline concentration versus time curves, for each of the three rabbits after a zero-order aminophylline infusion of 40 mg/kg over fifteen minutes, is shown in FIG. 2. The data were fitted to a two-compartment open pharmacokinetic model with first order elimination using PROPHET (PROPHET computer system, FIT FUN routine, Director, Chemical/Biological Information Handling Program, Division of Research Resources, NIH, Bethesda, MD.) The parameters generated from three rabbits were corrected for infusion time, (as described by Gibaldi) and are listed in Table II.

[4] = cited from earlier work
[5] = in vivo; cited from earlier work
[6] = system: mediator-induced broncoconstriction; details: cited from earlier work
[7] = Single and combined intravenous methyl xanthines in rabbits: heart rate, deaths, plasma concentrations (Example 6); assay type: in vivo, female rabbits; details: for heart rate, individual drug treatment: one rabbit each, normal about 220 bpm
Method: T 40 mg/kg of aminophylline infused at the rate of 0.21 ml/min over 30
T/D 40 mg/kg of aminophylline infused at the rate of 0.21 ml/min over 30
T/E 40 mg/kg of aminophylline infused at the rate of 0.21 ml/min over 30
T/P 40 mg/kg of aminophylline infused at the rate of 0.21 ml/min over 30

[8] = cited from earlier work; remark: listed apart in the source
[9] = in vivo
Method: (§1) One horse was administered acetyl promazine thiamyol sodium, quaifensin, and halothane to produce general anesthesia. Dyphylline (20 mg/kg) was given as an intravenous bolus injection in less than 15 seconds and aminophylline (10 mg/kg) was given as an infusion over about 20 minutes. Plasma and cerebral spinal fluid were collected and assayed by high pressure liquid chromatography for both dyphylline and theophylline.

[10] = Winter; cited from earlier work
[11] = Concurrent administration of theophylline and dyphylline in rabbits: pharmacokinetics and toxicity (Example 1); details: rabbit, iv, 40 mg/kg
Method: All experiments of this example were performed using female New Zealand White rabbits. These rabbits (2.4-3.6 kg) were housed in a controlled environment and allowed free access to water and food.
Before dosing with drug the rabbit ear hair was clipped and treated with hair remover lotion (sold under the trademark NAIR, Carter-Wallace, Inc., New York, N.Y.), a catheter (Quick-Cath, 20 Ga, Travenol Laboratories, Inc., Deerfield, Ill.) and sterile intermittent infusion plug were then inserted in the rabbit's ear vein for infusion. […] For each separate administration of theophylline, a suitable amount of aminophylline (40 mg/kg) was dissolved in distilled water to make 10 ml injectable solution which was administered into a rabbit's ear vein as a continuous infusion over a period of 15 minutes.
Blood samples were collected from an ear vein (in the opposite ear from the infusion) at predetermined time intervals. Before collecting each sample, the rabbit ear was treated topically with xylene to dilate the ear vein for convenient sample collection. Immediately after each blood sample was drawn, 0.4 ml of blood was transfered to the centrifuge tube and 0.4 ml of acetronitrile with appropriate internal standard was added to precipitate the protein and extract drug components. After vortexing well, the blood acetonitrile mixture was centrifuged at 3000×G for ten minutes, and 10 μl of supernatent solution was then injected into the HPLC.
The post infusion data of theophylline were fitted to a two-compartment open model using the same procedure as described above. Although samples were collected while infusion of dyphylline was continuing, only post infusion data were used for dyphylline pharmacokinetic analysis.

[12] = cited from earlier work; remark: listed apart in the source
[13] = Plasma and cerebral spinal fluid concentrations in an anesthetized horse (Example 4); details: 0, 30 mins, 1 hour, 2 hours, 3 hours, 4 hours, 24 hours; for Cerebral spinal fluid concentration, theophylline: aminophylline 10 mg/kg + dyphylline 20 mg/kg bolus
Method: as §1

SMILES: Cn1c(=O)c2[nH]cnc2n(C)c1=O [aminophylline]
- Pulse, Horse 1 ([1]; 10 min to 240 min as for systolic, Horse 1, time 0: 42): 44 beats per minute and 60 beats per minute and 56 beats per minute
- Blood pressure Mean, Horse 1 ([1]; 10 min to 240 min as for systolic, Horse 1, time 0: 119): 106 and 156 and 123
- Blood pressure D, Horse 1 ([1]; 10 min to 240 min as for systolic, Horse 1, time 0: 156/98): 83 and 117 and 90
- toxicity and death ([2]; aminophylline 40 mg/kg every two hours until death): All the rabbits died following a short period of severe convulsions
- visible toxicity [3]: caused some visible toxicity but was not lethal

SMILES: Cn1c(=O)c2c(ncn2CC(=O)O)n(C)c1=O [acephylline, 1,3-dimethylxanthinylacetic acid]
- conversion to theophylline in the body ([4]; literature): not converted to theophylline in the body
- oral absorption [5]: not absorbed orally
- efficacy against mediator-induced broncoconstriction ([6]; guinea-pigs): ineffective

SMILES: CC(O)Cn1cnc2c1c(=O)n(C)c(=O)n2C (stereo not drawn) [proxyphylline, 7-β-hydroxypropyl-theophylline]
- heart rate, individual drug treatment [7]: about 96 bpm
- plasma concentration of proxyphylline ([8]; combined with theophylline and dyphylline (Bracher; Werdermann)): less than 9.0 mcg/ml
- plasma concentration, each drug ([8]; dyphylline and proxyphylline (Joos et al.), 90 min): about 13 mcg/ml

SMILES: Cn1c(=O)c2[nH]cnc2n(C)c1=O [theophylline]
- penetration into cerebral spinal fluid [9]: penetrate into cerebral spinal fluid
- tissue distribution ([4]; literature): penetrate the central nervous system, to infiltrate heart tissue and to distribute to lung tissue
- concentration at 40 min ([1]; horse, in vivo, iv, 10 mg/kg): 9000 to 10000 ng/mL
- Cmax ([1]; horse, in vivo, iv, 10 mg/kg, first horse, aminophylline 10 mg/kg over 17 minutes, dyphylline 20 mg/kg bolus at 40 minutes): 18000 ng/mL
- Cmax ([1]; horse, in vivo, iv, 10 mg/kg, second horse, dyphylline 20 mg/kg bolus then aminophylline 10 mg/kg over 20 minutes): 35000 ng/mL
- toxicity ([7]; rabbits): close to lethal
- average blood concentration of theophylline after first infusion ([2]; four rabbits, all survived first period, 40 mg/kg): about 100 mcg/ml
- volume of distribution (Vd), individual rabbits ([2]; from FIG. 3 data 1 to 2 hours, prior to second infusion, 40 mg/kg): 0.32 L/kg and 0.33 L/kg
- blood theophylline concentration after third infusion (rabbit died) ([2]; one rabbit, 40 mg/kg): about 400 mcg/ml
- Vd ([2]; 40 mg/kg, from FIG. 3 data 1 to 2 hours, prior to second infusion, read-out: volume of distribution (Vd), individual rabbits): 0.37 L/kg
- Vd ([2]; 40 mg/kg, from FIG. 3 data 1 to 2 hours, four rabbits, read-out: volume of distribution (Vd), average): 0.35 L/kg
- average blood concentration of theophylline, second period (three rabbits died) ([2]; second infusion, 40 mg/kg): about 250 mcg/ml
- theophylline concentration causing convulsions and death ([2]; theophylline alone): ~250 µg/mL
- visible toxicity [3]: one rabbit exhibited obvious signs of theophylline toxicity
- t1/2 ([3]; aminophylline 40 mg/kg, alone, rabbits 29, 30, 32, mean, 40 mg/kg): 6.3 h and 6.861 h and 6.30 h
- Vd ([3]; rabbit, in vivo, iv, 40 mg/kg, Vd): 0.279 L/kg
- Vd ([3]; rabbit, in vivo, iv, 40 mg/kg, Vel (β)): 0.562 L/kg
- half-life ([3]; rabbit, in vivo, iv, 40 mg/kg, aminophylline 40 mg/kg, alone, rabbits 29, 30, 32, mean): 344 min
- concentration at 0.25 h ([3]; rabbit, in vivo, iv, 40 mg/kg, average blood concentration of theophylline immediately after stopping the infusion, Table II rabbits): ~100 µg/mL
- Vd ([3]; rabbit, in vivo, iv, 40 mg/kg, average total volume of distribution of theophylline given alone): ~0.59 L/kg
- concentration at 0.25 h ([3]; rabbit, in vivo, iv, 40 mg/kg, blood concentration of theophylline when the infusion was stopped): 110 to 130 µg/mL
- k el ([3]; rabbit, in vivo, iv, 40 mg/kg, k10): 6.75e-05 s⁻¹
- total volume of distribution, average [10]: about 0.48 L/kg
- Vd ([11]; in vivo, Vd(B), theophylline followed by dyphylline, b237, b241, b245, b249 rabbits 45-48, b250 mean): 0.35 L/kg
- concentration at 0.25 h [11]: ~150 µg/mL
- Vd ([11]; Vc): 0.151 L/kg
- Vd ([11]; Vd(B)): 0.403 L/kg
- half-life ([11]; average half-life of theophylline): 360 to 390 min
- Vd ([11]; average total volume of distribution of theophylline given with dyphylline): ~0.35 L/kg
- effective plasma concentration ([12]; humans): 10 to 20 µg/mL
- effectiveness and toxicity, dyphylline versus theophylline ([12]; literature): more effective and toxic than dyphylline
- effects of excessive dose or too rapid administration ([12]; total dose in less than about twenty minutes): blood pressure drop and may develop convulsions which in some instances lead to death
- Cerebral spinal fluid concentration, theophylline [13]: 0 µg/mL
- Cerebral spinal fluid concentration, theophylline ([13]; 10 mg/kg): 5.3 µg/mL
- Plasma concentration, theophylline ([13]; aminophylline 10 mg/kg over 20 min + dyphylline 20 mg/kg bolus): 0 µg/mL

SMILES: Cn1c(=O)c2c(ncn2CCO)n(C)c1=O [etophylline, β-hydroxyethylthophylline]
- conversion to theophylline in the body ([4]; in vivo): not converted to theophylline in the body
- heart rate, individual drug treatment [7]: 100 bpm
- activity relative to theophylline ([6]; based on effective plasma drug concentrations): 0.44 times theophylline
